Test results taken from patent US20200325139A1, “NEW ANTIBIOTICS TARGETING MYCOBACTERIA” (priority 2017, published 2020).
Like-named read-outs stand apart in the source and are kept apart here.

Legend:
[1] = tested on: M. tuberculosis H37Rv; assay: microbe, parasite or virus in culture; type: cell-based; details: for MIC: Mycobacterium tuberculosis, H37RV
[2] = tested on: M. abscessus CIP104536; assay: MIC of amoxicillin in presence or absence of DBOs, microdilution; type: cell-based; details: for Fold reduction in the MIC of amoxicillin: M. abscessus, DBO 15 μM; for MIC of amoxicillin / MIC: M. abscessus CIP104536, DBO at 15 μM, listed as None = amoxicillin alone; for MIC: Mycobacteroides abscessus
[3] = tested on: BlaMab; assay: Carbamoylation of β-lactamase by DBOs, nitrocefin spectrophotometry; type: biochemical, Mycobacterium abscessus; details: for Carbamoylation efficacy of β-lactamase BlaMab: 20° C., nitrocefin 100 μM, MES pH 6.4
[4] = target: BlaC (Mycobacterium tuberculosis, UniProt P9WKD3); assay: as above; type: biochemical; details: for Carbamoylation efficacy of β-lactamase BlaC: 20° C., nitrocefin 100 μM, MES pH 6.4, highest DBO concentration 100 μM
Sequence of BlaC (P9WKD3 39-306): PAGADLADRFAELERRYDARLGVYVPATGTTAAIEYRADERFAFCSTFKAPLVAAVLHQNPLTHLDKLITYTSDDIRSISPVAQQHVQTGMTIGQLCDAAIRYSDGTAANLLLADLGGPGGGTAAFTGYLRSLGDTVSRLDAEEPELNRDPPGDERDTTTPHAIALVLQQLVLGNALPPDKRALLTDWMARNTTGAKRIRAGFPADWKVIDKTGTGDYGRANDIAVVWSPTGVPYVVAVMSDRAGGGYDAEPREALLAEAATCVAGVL

[5] = tested on: Ldtfm; assay: Inhibition of L,D-transpeptidase by DBOs, residual nitrocefin hydrolysis; type: biochemical, E. faecium; details: 260 min at 37° C.
[6] = target: LdtMt2 (Mycobacterium tuberculosis, UniProt I6Y9J2); assay: as above; type: biochemical, M. tuberculosis; details: 260 min, Inhibitor/LdtMt2 molar ratio 20 (DBO 200 μM, enzyme 10 μM); 260 min at 37° C.; read-out: Residual activity of LdtMt2 following pre-incubation
Sequence of LdtMt2 (I6Y9J2 55-408): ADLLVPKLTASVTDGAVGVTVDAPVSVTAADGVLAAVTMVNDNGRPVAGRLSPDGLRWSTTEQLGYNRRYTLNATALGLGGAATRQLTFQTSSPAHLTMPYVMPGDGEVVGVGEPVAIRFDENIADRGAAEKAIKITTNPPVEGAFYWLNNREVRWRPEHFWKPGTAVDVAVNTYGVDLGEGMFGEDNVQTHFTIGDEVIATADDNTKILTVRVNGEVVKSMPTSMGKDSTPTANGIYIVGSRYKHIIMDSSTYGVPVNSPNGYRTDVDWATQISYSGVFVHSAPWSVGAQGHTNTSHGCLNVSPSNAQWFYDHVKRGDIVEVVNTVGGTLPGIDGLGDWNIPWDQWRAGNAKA

[7] = tested on: M. tuberculosis H37Rv ΔblaC; assay: microbe, parasite or virus in culture; type: cell-based; details: for MIC: Mycobacterium tuberculosis, H37RV
[8] = tested on: M. abscessus CIP104536 ΔblaMab; assay: microbe, parasite or virus in culture; type: cell-based; details: for MIC: Mycobacteroides abscessus
[9] = Inhibitor/Ldtfm molar ratio 1, enzyme 10 μM
[10] = Inhibitor/Ldtfm molar ratio 2.5, enzyme 10 μM
[11] = Inhibitor/Ldtfm molar ratio 5, enzyme 10 μM
[12] = Inhibitor/Ldtfm molar ratio 10, enzyme 10 μM
[13] = Inhibitor/Ldtfm molar ratio 20 (DBO 200 μM, enzyme 10 μM)
[14] = read-out: MIC of amoxicillin against indicated strain

NC(=O)[C@@H]1CC[C@@H]2CN1C(=O)N2OS(=O)(=O)O [Avibactam, reference compound]
Fold reduction in the MIC of amoxicillin [1]: at least 16 fold | Fold reduction in the MIC of amoxicillin [2]: at least 16 fold | Carbamoylation efficacy of β-lactamase BlaMab [3]: (1.7 ± 0.1) × 10^5 M^−1 s^−1 | Inhibition of the β-lactamase activity of BlaMab (in words) ([3]; nitrocefin as the substrate): most efficacious inhibition | Carbamoylation efficacy of β-lactamase BlaC [4]: (2.4 ± 0.8) × 10^1 M^−1 s^−1 | Inhibition of the β-lactamase activity of BlaC (in words) ([4]; nitrocefin as the substrate, tested up to 100 μM): poorly inhibited | Residual activity of Ldtfm following pre-incubation [5, 9]: 66.3% | Residual activity of Ldtfm following pre-incubation [5, 10]: 36.4% | Residual activity of Ldtfm following pre-incubation [5, 11]: 15.8% | Residual activity of Ldtfm following pre-incubation [5, 12]: 3.4% | Residual activity of Ldtfm following pre-incubation [5, 13]: 2.4%

O=C1N2C[C@@H](CC[C@H]2Cn2cc(CN3CCOCC3)nn2)N1OS(=O)(=O)[O-].[Na+] [Compound 1a.i.11]
Fold reduction in the MIC of amoxicillin [1]: less active | Fold reduction in the MIC of amoxicillin [2]: less active | Carbamoylation efficacy of β-lactamase BlaMab [3]: (4.4 ± 0.2) × 10^3 M^−1 s^−1 | Carbamoylation efficacy of β-lactamase BlaC [4]: <5 × 10^0 M^−1 s^−1 | Residual activity of Ldtfm following pre-incubation [5, 9]: 92.0% | Residual activity of Ldtfm following pre-incubation [5, 10]: 83.9% | Residual activity of Ldtfm following pre-incubation [5, 11]: 68.6% | Residual activity of Ldtfm following pre-incubation [5, 12]: 51.8% | Residual activity of Ldtfm following pre-incubation [5, 13]: 28.1% | remaining activity at 200 µM [6]: 73.9%

COCc1cn(C[C@@H]2CC[C@@H]3CN2C(=O)N3OS(=O)(=O)O)nn1 [Compound 1a.i.13]
remaining activity at 200 µM [6]: 41.7%

O=C(O)CCc1cn(C[C@@H]2CC[C@@H]3CN2C(=O)N3OS(=O)(=O)O)nn1 [Compound 1a.i.14]
remaining activity at 200 µM [6]: 87.1%

O=C1N2C[C@@H](CC[C@H]2Cn2cc(-c3ccccc3)nn2)N1OS(=O)(=O)O [Compound 1a.i.16]
remaining activity at 200 µM [6]: 8.3%

O=C1N2C[C@@H](CC[C@H]2Cn2cc(-c3cccnc3)nn2)N1OS(=O)(=O)O [Compound 1a.i]
Fold reduction in the MIC of amoxicillin [1]: activity similar to that of avibactam | MIC of amoxicillin [1]: 16 µg/mL | MIC of amoxicillin [7]: 1 µg/mL | Fold reduction in the MIC of amoxicillin [2]: activity similar to that of avibactam | MIC of amoxicillin ([2]; Table 1): 16 µg/mL | MIC of amoxicillin ([8]; Table 1, M. abscessus CIP104536 ΔblaMab, DBO at 15 μM, listed as None = amoxicillin alone): 4 µg/mL | Carbamoylation efficacy of β-lactamase BlaMab [3]: (2.2 ± 0.1) × 10^4 M^−1 s^−1 | Carbamoylation efficacy of β-lactamase BlaC [4]: <5 × 10^0 M^−1 s^−1 | Residual activity of Ldtfm following pre-incubation [5, 9]: 88.6% | Residual activity of Ldtfm following pre-incubation [5, 10]: 76.1% | Residual activity of Ldtfm following pre-incubation [5, 11]: 63.6% | Residual activity of Ldtfm following pre-incubation [5, 12]: 34.3% | Residual activity of Ldtfm following pre-incubation [5, 13]: 15.8% | remaining activity at 200 µM [6]: 14.5%

C[Si](C)(C)c1cn(C[C@@H]2CC[C@@H]3CN2C(=O)N3OS(=O)(=O)O)nn1 [Compound 2a.i]
Carbamoylation efficacy of β-lactamase BlaMab [3]: (6.2 ± 0.2) × 10^4 M^−1 s^−1 | Carbamoylation efficacy of β-lactamase BlaC [4]: <5 × 10^0 M^−1 s^−1 | Residual activity of Ldtfm following pre-incubation [5, 9]: 88.8% | Residual activity of Ldtfm following pre-incubation [5, 10]: 82.7% | Residual activity of Ldtfm following pre-incubation [5, 11]: 68.0% | Residual activity of Ldtfm following pre-incubation [5, 12]: 50.7% | Residual activity of Ldtfm following pre-incubation [5, 13]: 27.2% | remaining activity at 200 µM [6]: 72.4%

CC1(C)S[C@@H]2[C@H](NC(=O)[C@H](N)c3ccc(O)cc3)C(=O)N2[C@H]1C(=O)O [amoxicillin, reference compound]
MIC ([1]; read-out: MIC of amoxicillin): 128 µg/mL | MIC [1, 14]: 128 µg/mL | MIC ([7]; read-out: MIC of amoxicillin): 1 µg/mL | MIC [7, 14]: 1 µg/mL | MIC ([2]; Table 1, read-out: MIC of amoxicillin): > 256 µg/mL | MIC ([2]; Table 2, read-out: MIC of amoxicillin against indicated strain): > 256 µg/mL | MIC of amoxicillin ([2]; Table 1): >256 µg/mL | MIC ([8]; CIP104536, read-out: MIC of amoxicillin): 4 µg/mL | MIC ([8]; CIP104536, read-out: MIC of amoxicillin against indicated strain): 4 µg/mL
